This is an account of results in patent US20240116985A1, “STAPLED PEPTIDES AND METHODS THEREOF” (priority 2020, published 2024).

Experiment [1] concerns the target T1, full-length beta-Catenin (Uniprot ID P35222) (Homo sapiens, UniProt P35222).
T1 construct: 10 nM full-length beta-Catenin (Uniprot ID P35222)
T1 sequence (P35222 1-781): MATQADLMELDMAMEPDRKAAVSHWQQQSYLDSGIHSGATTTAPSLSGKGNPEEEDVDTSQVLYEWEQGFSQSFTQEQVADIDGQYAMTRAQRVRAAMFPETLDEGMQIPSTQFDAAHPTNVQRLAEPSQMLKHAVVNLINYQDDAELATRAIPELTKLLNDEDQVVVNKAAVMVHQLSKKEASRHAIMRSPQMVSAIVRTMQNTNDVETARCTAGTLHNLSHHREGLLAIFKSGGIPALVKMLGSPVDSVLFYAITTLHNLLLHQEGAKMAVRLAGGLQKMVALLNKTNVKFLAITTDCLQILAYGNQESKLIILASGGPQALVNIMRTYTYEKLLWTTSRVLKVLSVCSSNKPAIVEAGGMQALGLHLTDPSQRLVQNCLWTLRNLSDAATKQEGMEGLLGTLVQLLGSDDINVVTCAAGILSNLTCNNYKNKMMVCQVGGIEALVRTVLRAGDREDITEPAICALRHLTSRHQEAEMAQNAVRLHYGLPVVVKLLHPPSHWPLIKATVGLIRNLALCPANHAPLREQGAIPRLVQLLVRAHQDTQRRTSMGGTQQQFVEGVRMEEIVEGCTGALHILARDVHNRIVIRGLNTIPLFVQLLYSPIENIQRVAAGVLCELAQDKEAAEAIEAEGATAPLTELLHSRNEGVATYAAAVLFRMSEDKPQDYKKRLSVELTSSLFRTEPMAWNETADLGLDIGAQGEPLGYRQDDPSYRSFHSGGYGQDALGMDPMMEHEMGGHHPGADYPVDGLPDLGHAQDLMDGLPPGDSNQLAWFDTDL
Briefly: Fluorescence polarization IC50 (beta-catenin / 5FAM-TCF4 10-53 competition). The class given is binding. To be noted: fluorescence polarization; read-out: beta-Catenin FP IC50.

Experiment [2] concerns the target T2, beta-catenin/TCF4 engagement (Homo sapiens, UniProt P35222).
T2 construct: expressed in transfected cells; host or cells: HEK293
T2 sequence (P35222 1-781): T1 sequence (P35222 1-781)
Briefly: Nano-BRET target engagement assay (B-cat-Halo & TCF4-Luc in HEK293 cells). The experiment is classed as cell-based. The conditions noted are these: absolute IC50; read-out: NanoBRET Abs IC50.

As usually defined, the IC50 is the point on the concentration scale where inhibition reaches its midpoint. For `CNCCCCN(C)C(=O)CC[C@@H]1NC(=O)[C@H](Cc2cccc(C(=O)O)c2)NC(=O)[C@H](CC(=O)O)NC(=O)C2(CCCC=CCCCOC(=O)N3CC[C@@](C(=O)N[C@@H](Cc4ccsc4)C(=O)N[C@@H](Cc4csc5ccccc45)C(=O)N[C@@H](C)C(N)=O)(C3)NC(=O)[C@H](C(C)C)NC(=O)[C@H](Cc3ccccc3)NC(=O)[C@H](C)NC1=O)CCCC=CC[C@]1(CCCN1C(C)=O)C(=O)N[C@@H](CC(=O)O)C(=O)N[C@@H](CC(C)(C)C)C(=O)N2` (stereo partly drawn) [I-2301, Ac-PL3-Asp-Npg-B5-Asp-3COOHF-[Me2diaminobutane]GlnR-Ala-Phe-Val-PyrS2-3Thi-BztA-Ala-NH2], the IC50 was 5 nM in experiment [1] and greater than 20000 nM in experiment [2].
With `CCNC(=O)CC[C@@H]1NC(=O)[C@H](Cc2cccc(C(=O)O)c2)NC(=O)[C@H](CC(=O)O)NC(=O)C2(CCCC=CCCCOC(=O)N3CC[C@@](C(=O)N[C@@H](Cc4ccsc4)C(=O)N[C@@H](Cc4csc5ccccc45)C(=O)N[C@@H](C)C(N)=O)(C3)NC(=O)[C@H](C(C)C)NC(=O)[C@H](Cc3ccccc3)NC(=O)[C@H](C)NC1=O)CCCC=CC[C@]1(CCCN1C(C)=O)C(=O)N[C@@H](CC(=O)O)C(=O)N[C@@H](CC(C)(C)C)C(=O)N2` (stereo partly drawn) [I-2302, Ac-PL3-Asp-Npg-B5-Asp-3COOHF-[NHEt]GlnR-Ala-Phe-Val-PyrS2-3Thi-BztA-Ala-NH2], the values for the IC50 in experiment [1] and in experiment [2] were 5 nM and 2500 nM, respectively.
Turning to `CC(=O)N1CCC[C@]12CC=CCCCC1(CCCC=CCCCOC(=O)N3CC[C@@](C(=O)N[C@@H](Cc4ccsc4)C(=O)N[C@@H](Cc4csc5ccccc45)C(=O)N[C@@H](C)C(N)=O)(C3)NC(=O)[C@H](C(C)C)NC(=O)[C@H](Cc3ccccc3)NC(=O)[C@H](C)NC(=O)[C@H](CCC(=O)N(C)C)NC(=O)[C@H](Cc3cccc(C(=O)O)c3)NC(=O)[C@H](CC(=O)O)NC1=O)NC(=O)[C@H](CC(C)(C)C)NC(=O)[C@H](CC(=O)O)NC2=O` (stereo partly drawn) [I-2303, Ac-PL3-Asp-Npg-B5-Asp-3COOHF-[NMe2]GlnR-Ala-Phe-Val-PyrS2-3Thi-BztA-Ala-NH2], the values for the IC50 in experiment [1] and in experiment [2] were 5 nM and 1200 nM, respectively.
With `CC(C)COC(=O)N1CCC[C@]12CC=CCCCC1(CCCC=CCCCOC(=O)N3CC[C@@](C(=O)N[C@@H](Cc4ccccc4Cl)C(=O)N[C@@H](Cc4csc5ccccc45)C(=O)N[C@@H](C)C(N)=O)(C3)NC(=O)[C@H](CC(C)C)NC(=O)[C@H](Cc3ccccc3)NC(=O)[C@H](C)NC(=O)[C@H](C)NC(=O)[C@H](Cc3cccc(C(=O)O)c3)NC(=O)[C@H](CC(=O)O)NC1=O)NC(=O)[C@H](CC(C)(C)C)NC(=O)[C@H](CC(=O)O)NC2=O` (stereo partly drawn) [I-2305, CO2iBu-PL3-Asp-Npg-B5-Asp-3COOHF-Ala-Ala-Phe-Leu-PyrS2-2C1F-BztA-Ala-NH2], the IC50 was 65 nM in experiment [1] and greater than 20000 nM in experiment [2].
Taken in the same sequence, the figures for `C[C@@H]1NC(=O)[C@H](C)NC(=O)[C@H](CC(=O)O)NC(=O)[C@H](CC(=O)O)NC(=O)C2(CCCC=CCCCOC(=O)N3CC[C@@](C(=O)N[C@@H](Cc4ccsc4)C(=O)N[C@@H](Cc4csc5ccccc45)C(=O)N[C@@H](CCC(N)=O)C(N)=O)(C3)NC(=O)[C@H](CC(N)=O)NC(=O)[C@H](Cc3ccccc3)NC1=O)CCCC=CCOc1cccc(c1)C(=O)N[C@@H](CC(=O)O)C(=O)N[C@@H](CC(C)(C)C)C(=O)N2` (stereo partly drawn) [I-2306, BzAm3Oallyl-Asp-Npg-B5-Asp-Asp-Ala-Ala-Phe-Asn-PyrS2-3Thi-BztA-Gln-NH2] were 45 nM and greater than 20000 nM.
For `CC(=O)N1CCC[C@]12CC=CCCCC1(CCCC=CCCCOC(=O)N3CC[C@@](C(=O)N[C@@H](Cc4ccsc4)C(=O)N[C@@H](Cc4cccc(Br)c4)C(=O)N[C@@H](CCC(N)=O)C(N)=O)(C3)NC(=O)[C@H](CC(C)C)NC(=O)[C@H](Cc3ccccc3)NC(=O)[C@H](C)NC(=O)[C@H](C)NC(=O)[C@H](Cc3cccc(C(=O)O)c3)NC(=O)[C@H](CC(=O)O)NC1=O)NC(=O)[C@H](CC(C)(C)C)NC(=O)[C@H](CC(=O)O)NC2=O` (stereo partly drawn) [I-2307, Ac-PL3-Asp-Npg-B5-Asp-3COOHF-Ala-Ala-Phe-Leu-PyrS2-3Thi-3BrF-Gln-NH2], the IC50 in experiment [1] was found to be 16 nM; in experiment [2] it was 8900 nM.
With `CC(=O)N1CCC[C@]12CC=CCCCC1(CCCC=CCCCOC(=O)N3CC[C@@](C(=O)N[C@@H](Cc4ccsc4)C(=O)N[C@@H](Cc4cccc(Br)c4)C(=O)N[C@@H](C)C(N)=O)(C3)NC(=O)[C@H](C(C)C)NC(=O)[C@H](Cc3ccccc3)NC(=O)[C@H](C)NC(=O)[C@H](CCC(N)=O)NC(=O)[C@H](Cc3cccc(C(=O)O)c3)NC(=O)[C@H](CC(=O)O)NC1=O)NC(=O)[C@H](CC(C)(C)C)NC(=O)[C@H](CC(=O)O)NC2=O` (stereo partly drawn) [I-2308, Ac-PL3-Asp-Npg-B5-Asp-3COOHF-Gln-Ala-Phe-Val-PyrS2-3Thi-3BrF-Ala-NH2], the values for the IC50 in experiment [1] and in experiment [2] were 8 nM and 6000 nM, respectively.
For the compound `CC(=O)N1CCC[C@]12CC=CCCCC1(CCCC=CCCCOC(=O)N3CC[C@@](C(=O)N[C@@H](Cc4ccsc4)C(=O)N[C@@H](Cc4ccc5ccccc5c4)C(=O)N[C@@H](CCC(N)=O)C(N)=O)(C3)NC(=O)[C@H](CC(C)C)NC(=O)[C@H](Cc3ccccc3)NC(=O)[C@H](C)NC(=O)[C@H](C)NC(=O)[C@H](Cc3cccc(C(=O)O)c3)NC(=O)[C@H](CC(=O)O)NC1=O)NC(=O)[C@H](CC(C)(C)C)NC(=O)[C@H](CC(=O)O)NC2=O` (stereo partly drawn) [I-2309, Ac-PL3-Asp-Npg-B5-Asp-3COOHF-Ala-Ala-Phe-Leu-PyrS2-3Thi-2NapA-Gln-NH2], the IC50 is 17 nM in experiment [1] and 13700 nM in experiment [2].
Regarding `CC(=O)N1CCC[C@]12CC=CCCCC1(CCCC=CCCCOC(=O)N3CC[C@@](C(=O)N[C@@H](Cc4ccsc4)C(=O)N[C@@H](Cc4ccc5ccccc5c4)C(=O)N[C@@H](C)C(N)=O)(C3)NC(=O)[C@H](C(C)C)NC(=O)[C@H](Cc3ccccc3)NC(=O)[C@H](C)NC(=O)[C@H](CCC(N)=O)NC(=O)[C@H](Cc3cccc(C(=O)O)c3)NC(=O)[C@H](CC(=O)O)NC1=O)NC(=O)[C@H](CC(C)(C)C)NC(=O)[C@H](CC(=O)O)NC2=O` (stereo partly drawn) [I-2310, Ac-PL3-Asp-Npg-B5-Asp-3COOHF-Gln-Ala-Phe-Val-PyrS2-3Thi-2NapA-Ala-NH2], the half-maximal inhibitory concentration (IC50) in experiment [1] worked out at 18 nM; in experiment [2] it was 8900 nM.
For `CC(=O)N1CCC[C@]12CC=CCCCC1(CCCC=CCCCOC(=O)N3CC[C@@](C(=O)N[C@@H](Cc4ccsc4)C(=O)N[C@H](C(=O)N[C@@H](CCC(N)=O)C(N)=O)[C@H](C)c4ccc5ccccc5c4)(C3)NC(=O)[C@H](CC(C)C)NC(=O)[C@H](Cc3ccccc3)NC(=O)[C@H](C)NC(=O)[C@H](C)NC(=O)[C@H](Cc3cccc(C(=O)O)c3)NC(=O)[C@H](CC(=O)O)NC1=O)NC(=O)[C@H](CC(C)(C)C)NC(=O)[C@H](CC(=O)O)NC2=O` (stereo partly drawn) [I-2311, Ac-PL3-Asp-Npg-B5-Asp-3COOHF-Ala-Ala-Phe-Leu-PyrS2-3Thi-RbMe2NapA-Gln-NH2], the figures for the IC50 in experiment [1] and in experiment [2] were 5 nM and 5200 nM, respectively.
Turning to `CC(=O)N1CCC[C@]12CC=CCCCC1(CCCC=CCCCOC(=O)N3CC[C@@](C(=O)N[C@@H](Cc4ccsc4)C(=O)N[C@H](C(=O)N[C@@H](C)C(N)=O)[C@H](C)c4ccc5ccccc5c4)(C3)NC(=O)[C@H](C(C)C)NC(=O)[C@H](Cc3ccccc3)NC(=O)[C@H](C)NC(=O)[C@H](CCC(N)=O)NC(=O)[C@H](Cc3cccc(C(=O)O)c3)NC(=O)[C@H](CC(=O)O)NC1=O)NC(=O)[C@H](CC(C)(C)C)NC(=O)[C@H](CC(=O)O)NC2=O` (stereo partly drawn) [I-2312, Ac-PL3-Asp-Npg-B5-Asp-3COOHF-Gln-Ala-Phe-Val-PyrS2-3Thi-RbMe2NapA-Ala-NH2], the IC50 is 5 nM in experiment [1] and 5200 nM in experiment [2].
